Columns and labels:
[1] = species on record: Homo sapiens; assay: Selectivity ratio of IC50 for human CB2 receptor to IC50 for human CB1 receptor
[2] = target: T1, Cannabinoid receptor 1 (Homo sapiens, UniProt P21554); assay: Displacement of [3H]CP-55940 from human CB1 receptor expressed in HEK293 cells at 10 uM; type: cell-based
[3] = target: Cannabinoid receptor 2 (Homo sapiens, UniProt P34972); assay: Displacement of [3H]CP-55940 from human CB2 receptor expressed in HEK293 cells; type: cell-based
Sequence of Cannabinoid receptor 2 (P34972 whole entry): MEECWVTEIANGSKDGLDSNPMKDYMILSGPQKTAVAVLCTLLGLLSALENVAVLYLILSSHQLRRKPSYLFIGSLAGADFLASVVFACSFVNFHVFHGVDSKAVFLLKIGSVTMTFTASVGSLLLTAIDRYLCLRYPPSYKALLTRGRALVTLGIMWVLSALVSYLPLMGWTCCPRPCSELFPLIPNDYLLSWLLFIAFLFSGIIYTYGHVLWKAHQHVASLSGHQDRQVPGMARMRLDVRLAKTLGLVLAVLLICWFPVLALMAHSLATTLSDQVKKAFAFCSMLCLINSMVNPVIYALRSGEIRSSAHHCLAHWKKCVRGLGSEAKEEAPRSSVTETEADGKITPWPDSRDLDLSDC

[4] = target: T1, Cannabinoid receptor 1; assay: Antagonist activity at human CB1 receptor expressed in HEK293 cells assessed as inhibition of Eu-GTP binding; type: cell-based
[5] = target: T1, Cannabinoid receptor 1; assay: biochemical; type: cell-based, HEK293

T1 sequence (P21554 whole entry): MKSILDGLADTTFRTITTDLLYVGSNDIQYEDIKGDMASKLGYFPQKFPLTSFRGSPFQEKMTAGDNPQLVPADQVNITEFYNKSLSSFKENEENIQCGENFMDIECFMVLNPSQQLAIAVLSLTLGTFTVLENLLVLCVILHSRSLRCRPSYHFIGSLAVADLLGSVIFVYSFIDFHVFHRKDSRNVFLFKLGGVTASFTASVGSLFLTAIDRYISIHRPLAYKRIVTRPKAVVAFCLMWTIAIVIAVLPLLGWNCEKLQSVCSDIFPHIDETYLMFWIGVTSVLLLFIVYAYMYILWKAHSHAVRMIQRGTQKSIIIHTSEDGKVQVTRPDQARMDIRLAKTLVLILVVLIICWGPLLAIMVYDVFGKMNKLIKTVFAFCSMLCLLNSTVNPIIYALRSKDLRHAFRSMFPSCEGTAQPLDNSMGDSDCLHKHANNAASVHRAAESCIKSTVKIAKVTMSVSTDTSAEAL

| SMILES | Ratio IC50 [1] | inhibition [2] | IC50 [3] | EC50 [4] | IC50 [5] |
| --- | --- | --- | --- | --- | --- |
| CCCCOC(=O)Cn1nnc(-c2ccc(Cl)cc2)c1-c1ccc(Cl)cc1 | > 1000 | 64.1% | – | – | – |
| O=C(Cn1nc(-c2ccc(Cl)cc2Cl)c(-c2ccc(Cl)cc2Cl)n1)Oc1ccccc1 | > 1000 | 14.3% | – | – | – |
| O=C(NCc1ccccc1)n1nc(-c2ccc(Cl)cc2)c(-c2ccc(Cl)cc2Cl)n1 | > 1000 | 18.6% | – | – | – |
| O=C(Cn1nc(-c2ccc(Cl)cc2Cl)c(-c2ccc(Cl)cc2Cl)n1)NCc1cccc(F)c1 | > 1000 | – | > 10 µM | 35.1 nM | – |
| O=C(NC12CC3CC(CC(C3)C1)C2)n1nc(-c2ccc(Cl)cc2)c(-c2ccc(Cl)cc2Cl)n1 | > 1000 | 34.5% | – | – | – |
| O=C(Cn1nc(-c2ccc(Cl)cc2Cl)c(-c2ccc(Cl)cc2Cl)n1)NCc1ccc(Cl)cc1 | > 1000 | – | > 10 µM | 17.8 nM | – |
| CCCCOC(=O)Cn1nc(-c2ccc(Cl)cc2Cl)c(-c2ccc(Cl)cc2Cl)n1 | > 1000 | – | – | – | – |
| O=C(Cn1nc(-c2ccc(Cl)cc2Cl)c(-c2ccc(Cl)cc2Cl)n1)NCc1ccc(F)cc1 | > 1000 | – | > 10 µM | 50.7 nM | – |
| O=C(Cn1nc(-c2ccc(Cl)cc2Cl)c(-c2ccc(Cl)cc2Cl)n1)Nc1ccccc1 | > 1000 | – | > 10 µM | 136 nM | – |
| O=C(Cn1nc(-c2ccc(Cl)cc2Cl)c(-c2ccc(Cl)cc2Cl)n1)N1CCCCC1 | – | – | 5.9 µM | – | – |
| O=C(Cn1nc(-c2ccc(Cl)cc2Cl)c(-c2ccc(Cl)cc2Cl)n1)NC1CCCCC1 | > 1000 | – | > 10 µM | 204 nM | – |
| O=C(NC1CCCCC1)n1nc(-c2ccc(Cl)cc2Cl)c(-c2ccc(Cl)cc2Cl)n1 | > 1000 | 29.2% | – | – | – |
| CCCCOC(=O)Cn1nnc(-c2ccc(Cl)cc2Cl)c1-c1ccc(Cl)cc1Cl | > 1000 | 46.1% | – | – | – |
| COc1ccc(CNC(=O)Cn2nc(-c3ccc(Cl)cc3Cl)c(-c3ccc(Cl)cc3Cl)n2)cc1 | > 1000 | – | > 10 µM | 56.2 nM | – |
| O=C(NC12CC3CC(CC(C3)C1)C2)n1nc(-c2ccc(Cl)cc2)c(-c2ccc(Cl)cc2)n1 | > 1000 | 19.7% | – | – | – |
| O=C(NC12CC3CC(CC(C3)C1)C2)n1nc(-c2ccc(Cl)cc2Cl)c(-c2ccc(Cl)cc2Cl)n1 | > 1000 | 78.9% | – | – | – |
| O=C(Cn1nnc(-c2ccc(Cl)cc2Cl)c1-c1ccc(Cl)cc1Cl)N1CCCCC1 | > 1000 | 55.7% | – | – | – |
| O=C(NCc1ccccc1)n1nc(-c2ccc(Cl)cc2Cl)c(-c2ccc(Cl)cc2Cl)n1 | > 1000 | 23.8% | – | – | – |
| O=C(Cn1nc(-c2ccc(Cl)cc2Cl)c(-c2ccc(Cl)cc2Cl)n1)NCc1ccccc1Cl | > 1000 | – | > 10 µM | 12.2 nM | – |
| O=C(Cn1nc(-c2ccc(Cl)cc2Cl)c(-c2ccc(Cl)cc2Cl)n1)NCc1cc(F)ccc1F | > 1000 | – | > 10 µM | 22 nM | 22.6 nM |
| O=C(NC1CCCCC1)n1nc(-c2ccc(Cl)cc2)c(-c2ccc(Cl)cc2)n1 | > 1000 | 19.9% | – | – | – |
| O=C(Cn1nc(-c2ccc(Cl)cc2Cl)c(-c2ccc(Cl)cc2Cl)n1)NCc1ccccc1F | > 1000 | – | > 10 µM | 23.5 nM | – |
| O=C(Cn1nc(-c2ccc(Cl)cc2)c(-c2ccc(Cl)cc2Cl)n1)NCc1ccccc1F | > 1000 | – | > 10 µM | 256 nM | – |
| O=C(NC1CCCCC1)n1nc(-c2ccc(Cl)cc2)c(-c2ccc(Cl)cc2Cl)n1 | > 1000 | 30.5% | – | – | – |
| O=C(Cn1nc(-c2ccc(Cl)cc2)c(-c2ccc(Cl)cc2Cl)n1)NCc1ccccc1 | > 1000 | – | > 10 µM | 216 nM | – |
| O=C(Cn1nnc(-c2ccc(Cl)cc2)c1-c1ccc(Cl)cc1)N1CCCCC1 | > 1000 | 33% | – | – | – |
| O=C(Cn1nc(-c2ccc(Cl)cc2Cl)c(-c2ccc(Cl)cc2Cl)n1)NCc1ccccc1 | > 1000 | – | > 10 µM | 87 nM | – |
| O=C(Cn1nc(-c2ccc(Cl)cc2)c(-c2ccc(Cl)cc2Cl)n1)NCc1ccc(F)cc1 | > 1000 | – | > 10 µM | 235 nM | – |
